Test results published in patent US20250009697A1, “COMPOSITION FOR INCREASING AMOUNT OF FOOD INGESTED AND/OR IMPROVING ANOREXIA, AND COMPOSITION FOR ACTIVATING TRANSIENT RECEPTOR POTENTIAL ANKYRIN 1” (HOUSE FOODS GROUP INC., priority 2021, published 2025).

How the values were obtained:
[1] = Anorexia Improving Test 3: cumulative amounts of food ingested of mice, rhein with or without A-967079; assay type: in vivo; conditions: oral, rhein 100 μmol/kg body weight, A-967079 10 μmol/kg body weight
Method: Male ICR mice were housed in individual cages in which ALPHA-dri (Shepherd Specialty Papers) was laid, and were acclimatized and raised for at least one week or more while a powder feed (CE-2, CLEA Japan, Inc.) was given to the mice by using a powder feeder for mice (SN-950, Shinano Manufacturing Co., Ltd.). Then, for several days before the experiment, handling and oral administration training using a feeding needle (FG4202, Fuchigami Kikai Co., Ltd.) were conducted every day. To 9 week-old mice under ad libitum feeding conditions, a carrier solution (containing 2% of dimethyl sulfoxide and 98% of a 0.5% methyl cellulose solution in volume ratio) or a rhein solution (obtained by dissolving 8.53 mg of rhein in 1 mL of the carrier solution) was orally administered from 9:20 a.m. (10 mL/kg body weight). The dosage of rhein was 300 μmol/kg body weight in terms of molar concentration. Then, a feeder the mass of which had been measured in advance was set in the cage at 9:30 a.m. The masses of the feeder and the feed spilled in the cage 0.5, 1, 2, and 3 hours after the start of the feeding experiment were measured, and the ingested mass (g) at each time was measured (n=6). The ingested mass (g) of each mouse was measured in the same manner as in anorexia improving test 2 (the above item 5) except that 10 mL/kg body weight of a carrier solution, a rhein solution (100 μmol/kg body weight), an A-967079 solution (10 μmol/kg body weight), or a mixed solution of A-967079 and rhein (in 10 μmol/kg body weight and 100 μmol/kg body weight, respectively) was orally administered to the mouse. Results obtained by calculating the cumulative amounts of food ingested and conducting a multiple comparison (multiple t-test) by the Dunn-Bonferroni method are shown in Table 12.

Human TRPA1 (hTRPA1) [2] = target: T1, Human TRPA1 (hTRPA1) (Homo sapiens, UniProt O75762); test: TRPA1 Activation Test 2: intracellular Ca2+ imaging assay 2-1 to 2-3, hTRPA1 stably expressing cell line; assay type: cell-based; conditions: for TRPA1 activation rates: Table 10; for Concentration dependence of TRPA1 activity (in words): additional experiments; for TRPA1 activating action (in words): hTRPA1 stably expressing cell line; for TRPA1 activation rate, With antagonist / TRPA1 activation rate, Without antagonist: Table 11
T1 construct: expressed in transfected cells
Method: (§1) DNAs encoding genes described in the following Table 2 were inserted into pcDNA 5/TO vector (Invitrogen) to prepare various expression vectors.
(§2) These expression vectors were transfected into T-REx™_293 cells (Invitrogen) by a conventional method using Lipofectamine LTX (Invitrogen). Then, various transfectants were cultured and cloned by a conventional method using Dulbecco's Modified Eagle Medium (DMEM, Nacalai Tesque Inc.), containing 10% fetal bovine serum (FBS, Cytiva), […] of hygromycin B, and 5 μg/mL of blasticidin S, as a drug selection medium to obtain a hTRPA1 stably expressing cell line, a hTRPV1 stably expressing cell line, and a hTRPM8 stably expressing cell line.
(§3) A hTRPA1 stably expressing cell line in which expression of hTRPA1 had been induced in advance by a conventional method was prepared in a 96 well clear bottom plate, and the hTRPA1 activating action of rhein (produced by Tokyo Chemical Industry Co., Ltd.) was tested. Specifically, after each well was washed with PBS, 50 μL of an assay buffer (Hanks' balanced salt solution containing no calcium ion or magnesium ion that contained 1 mM of CaCl2 dihydrate, 20 mM of HEPES, and 0.1% BSA) containing calcium fluorescent indicator Calbryte™ 520 AM (produced by AAT Bioquest) in a final concentration of 4 μM was added, followed by incubating at 33° C. for 45 minutes. After washing with the assay buffer, 100 μL of the assay buffer was added to each well. This plate was set to FlexStation 3 (Molecular Devices, LLC), and a fluorescence intensity (excitation wavelength 490 nm, fluorescence wavelength 525 nm) at 31° C. was measured every two seconds, and 30 seconds after the start of the measurement, 100 μL of an assay buffer containing a test sample (allyl isothiocyanate (AITC) of positive control or rhein) which was prepared to have a certain final concentration or DMSO was added. Then, a well in which an assay buffer containing ionomycin (having a final concentration of 10 μM after the addition) instead of the test samples was added was also prepared as a reference for fluorescence intensity.
(§4) The measurement was continued from the start of the measurement up to 120 seconds, and the TRPA1 activation ability of the test samples was calculated in accordance with the following formula.
(§5) Activation rate (%)=(Fmax[s]−F0)/(Fmax[i]−F0)×100 • Fmax[s]: The maximum value of the fluorescence intensity when the test sample or positive control was added • F0: The average value of the fluorescence intensity for 20 seconds after the start of the measurement (base line) • Fmax[i]: The maximum value of the fluorescence intensity when ionomycin was added
The TRPA1 activation ability of each test sample was measured in the same manner as in the above (2) except the test was conducted with A-967079 (1 μM), which is a TRPA1-specific antagonist, or without A-967079. In addition, intracellular Ca^2+ imaging assay was conducted in the same manner as in the above (2) except that a hTRPV1 stably expressing cell line, a hTRPM8 stably expressing cell line, or a Mock cell was used instead of the hTRPA1 stably expressing cell line. Note that capsaicin was used as positive control for the hTRPV1 stably expressing cell line, and icilin was used as positive control for the hTRPM8 stably expressing cell line.
A TRPA1 activation ability was measured in the same manner as in the above (2) by using, as a test sample, rhein or compounds described in the following Table 10, which had anthraquinone structures similar to rhein, at a concentration of 200 μM of the test sample.

Human TRPA1 (hTRPA1) [3] = target: T1, Human TRPA1 (hTRPA1); test: TRPA1 Activation Test 1: intracellular Ca2+ imaging assay 1-1 to 1-3, hTRPA1 stably expressing cell line; assay type: cell-based; conditions: for TRPA1 activating action with TRPA1-specific antagonist (in words) / TRPA1 activation rate, With antagonist: A-967079 1 μM; for TRPA1 activating action (in words): hTRPA1 stably expressing cell line; for TRPA1 activation rate, With antagonist / TRPA1 activation rate, Without antagonist: Table 6
Method: as §1, §2
as §3, with “bottom plate (black),” for “bottom plate,”, “and a” for “and the”, “of the purified oxylipin or the R2 fraction (both were assumed to contain a compound having a molecular weight of 294) obtained in the above item 1” for “of rhein (produced by Tokyo Chemical Industry Co., Ltd.)”, “calcium ions” for “calcium ion”, “magnesium ions” for “magnesium ion”, “sample” for “sample (allyl isothiocyanate (AITC) of positive control or rhein)”
as §4
as §5, with “sample or the positive control” for “sample or positive control”
The TRPA1 activation ability was measured in the same manner as in the above (2) except that the R2 fraction or allyl isothiocyanate (AITC) was used as a test sample and the test was conducted with A-967079 (1 μM), which is a TRPA1-specific antagonist, or without A-967079. In addition, regarding the R2 fraction, the hTRPV1 stably expressing cell line or the hTRPM8 stably expressing cell line was used instead of the hTRPA1 stably expressing cell line to conduct the same test. Note that as positive controls, capsaicin was used for the hTRPV1 stably expressing cell line and icilin was used for the hTRPM8 stably expressing cell line.
The TRPA1 activation ability was measured in the same manner as in the above (2) except that each isolated compound or allyl isothiocyanate (AITC) was used as a test sample and the test was conducted with A-967079 (1 μM), which was a TRPA1-specific antagonist, or without A-967079.

T1 sequence (O75762 whole entry): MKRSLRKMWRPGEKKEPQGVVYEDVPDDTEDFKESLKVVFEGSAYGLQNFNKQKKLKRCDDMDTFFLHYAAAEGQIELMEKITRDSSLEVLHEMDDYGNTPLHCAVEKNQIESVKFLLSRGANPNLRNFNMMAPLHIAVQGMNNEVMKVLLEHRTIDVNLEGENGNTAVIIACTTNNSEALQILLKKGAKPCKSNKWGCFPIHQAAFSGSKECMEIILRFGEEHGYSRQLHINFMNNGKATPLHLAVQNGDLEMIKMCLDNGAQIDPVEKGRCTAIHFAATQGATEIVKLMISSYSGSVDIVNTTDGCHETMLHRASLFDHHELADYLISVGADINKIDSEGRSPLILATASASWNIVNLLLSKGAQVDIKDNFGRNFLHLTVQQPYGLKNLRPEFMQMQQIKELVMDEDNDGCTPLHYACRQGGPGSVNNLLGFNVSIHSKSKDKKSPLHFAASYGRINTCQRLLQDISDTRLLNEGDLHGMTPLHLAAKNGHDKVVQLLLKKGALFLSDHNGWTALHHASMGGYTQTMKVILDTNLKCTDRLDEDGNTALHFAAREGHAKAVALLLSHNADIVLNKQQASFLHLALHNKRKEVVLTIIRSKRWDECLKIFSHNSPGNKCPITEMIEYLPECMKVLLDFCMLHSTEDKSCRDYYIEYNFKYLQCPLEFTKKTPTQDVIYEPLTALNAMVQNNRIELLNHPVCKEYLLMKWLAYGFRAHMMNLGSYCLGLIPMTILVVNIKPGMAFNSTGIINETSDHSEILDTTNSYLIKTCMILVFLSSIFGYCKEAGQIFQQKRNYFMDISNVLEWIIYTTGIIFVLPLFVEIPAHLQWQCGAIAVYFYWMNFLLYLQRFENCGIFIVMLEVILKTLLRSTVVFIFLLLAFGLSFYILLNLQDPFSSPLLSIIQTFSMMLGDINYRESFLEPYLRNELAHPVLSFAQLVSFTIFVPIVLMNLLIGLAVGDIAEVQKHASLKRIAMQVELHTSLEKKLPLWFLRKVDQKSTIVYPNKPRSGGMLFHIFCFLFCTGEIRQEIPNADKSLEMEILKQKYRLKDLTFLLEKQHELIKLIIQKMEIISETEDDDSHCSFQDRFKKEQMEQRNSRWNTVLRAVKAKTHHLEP

## CCC(=N\O)/C(C)=C/c1ccc(F)cc1 [Compound A-967079, reference compound]
[1]; 0.5 hour after the administration
  Cumulative amounts of food ingested of mice: 0.026 ± 0.0093 g
[1]; 1 hour after the administration
  Cumulative amounts of food ingested of mice: 0.042 ± 0.015 g
[1]; 2 hours after the administration
  Cumulative amounts of food ingested of mice: 0.088 ± 0.027 g
[1]; 3 hours after the administration
  Cumulative amounts of food ingested of mice: 0.20 ± 0.066 g

## O=C(O)c1cc(O)c2c(c1)[C@H]([C@H]1c3cc(C(=O)O)cc(O)c3C(=O)c3c(O[C@@H]4O[C@H](CO)[C@@H](O)[C@H](O)[C@H]4O)cccc31)c1cccc(O[C@@H]3O[C@H](CO)[C@@H](O)[C@H](O)[C@H]3O)c1C2=O [Sennoside A, reference compound]
Human TRPA1 (hTRPA1) [2]; test sample 200 μM
  TRPA1 activation rates: 3.33 ± 0.705%

## CCC(O)/C=C/C=C\C/C=C\CCCCCCCC(=O)O (stereo not drawn) [Compound R2-2]
Human TRPA1 (hTRPA1) [3]
  TRPA1 activating action with TRPA1-specific antagonist (in words): inhibited by the TRPA1-specific antagonist
  TRPA1 activating action (in words): exhibited the TRPA1 activating action
Human TRPA1 (hTRPA1) [3]; test sample 200 μM
  TRPA1 activation rate, With antagonist: 0.71 ± 0.0743%
  TRPA1 activation rate, Without antagonist: 21.6 ± 5.63%
Human TRPA1 (hTRPA1) [3]; test sample 500 μM
  TRPA1 activation rate, With antagonist: 1.96 ± 0.548%
  TRPA1 activation rate, Without antagonist: 77.5 ± 0.988%

## physcion
Human TRPA1 (hTRPA1) [2]
  Concentration dependence of TRPA1 activity (in words): exhibited TRPA1 activity in concentration dependent manner
  TRPA1 activating action (in words): exhibited TRPA1 activating actions
Human TRPA1 (hTRPA1) [2]; test sample 200 μM
  TRPA1 activation rates: 24.3 ± 0.760%

## Cc1cc(O)c2c(c1)C(=O)c1cccc(O)c1C2=O [Chrysophanol, reference compound]
Human TRPA1 (hTRPA1) [2]; test sample 200 μM
  TRPA1 activation rates: 3.27 ± 0.439%

## Cc1cc(O)c2c(c1)C(=O)c1cc(O)cc(O)c1C2=O [Emodin, emodin]
Human TRPA1 (hTRPA1) [2]; A-967079
  TRPA1 activating action with TRPA1-specific antagonist (in words): inhibited by A-967079
Human TRPA1 (hTRPA1) [2]
  Concentration dependence of TRPA1 activity (in words): exhibited TRPA1 activity in concentration dependent manner
  TRPA1 activating action (in words): exhibited TRPA1 activating actions
Human TRPA1 (hTRPA1) [2]; test sample 100 μM, A-967079
  TRPA1 activation rate, With antagonist: 0.881 ± 0.134 %
Human TRPA1 (hTRPA1) [2]; test sample 100 μM
  TRPA1 activation rate, Without antagonist: 49.4 ± 1.41%
Human TRPA1 (hTRPA1) [2]; test sample 200 μM, A-967079
  TRPA1 activation rate, With antagonist: 2.96 ± 0.246 %
Human TRPA1 (hTRPA1) [2]; test sample 200 μM
  TRPA1 activation rates: 43.1 ± 1.72%
  TRPA1 activation rate, Without antagonist: 64.8 ± 3.73%
Human TRPA1 (hTRPA1) [2]; test sample 400 μM, A-967079
  TRPA1 activation rate, With antagonist: 6.25 ± 1.70 %
Human TRPA1 (hTRPA1) [2]; test sample 400 μM
  TRPA1 activation rate, Without antagonist: 71.29 ± 1.08%

## aloe-emodin
Human TRPA1 (hTRPA1) [2]
  Concentration dependence of TRPA1 activity (in words): exhibited TRPA1 activity in concentration dependent manner
  TRPA1 activating action (in words): exhibited TRPA1 activating actions
Human TRPA1 (hTRPA1) [2]; test sample 200 μM
  TRPA1 activation rates: 15.3 ± 0.743%

## CC/C=C\C/C=C\C=C\C(O)CCCCCCCC(=O)O (stereo not drawn) [Compound R3]
Human TRPA1 (hTRPA1) [3]
  TRPA1 activating action with TRPA1-specific antagonist (in words): inhibited by the TRPA1-specific antagonist
  TRPA1 activating action (in words): exhibited the TRPA1 activating action
Human TRPA1 (hTRPA1) [3]; test sample 200 μM
  TRPA1 activation rate, With antagonist: 0.58 ± 0.0564%
  TRPA1 activation rate, Without antagonist: 16.3 ± 0.812%
Human TRPA1 (hTRPA1) [3]; test sample 500 μM
  TRPA1 activation rate, With antagonist: 0.731 ± 0.237%
  TRPA1 activation rate, Without antagonist: 93.6 ± 1.92%

## O=C1c2cccc(O)c2C(=O)c2cccc(O)c21 [Anthrarufin, reference compound]
Human TRPA1 (hTRPA1) [2]; test sample 200 μM
  TRPA1 activation rates: 0.587 ± 0.0172%

## CC/C=C/CC(O)/C=C/C=C\CCCCCCCC(=O)O (stereo not drawn) [Compound R1-2]
Human TRPA1 (hTRPA1) [3]
  TRPA1 activating action with TRPA1-specific antagonist (in words): inhibited by the TRPA1-specific antagonist
  TRPA1 activating action (in words): exhibited the TRPA1 activating action
Human TRPA1 (hTRPA1) [3]; test sample 200 μM
  TRPA1 activation rate, With antagonist: 1.75 ± 0.443%
  TRPA1 activation rate, Without antagonist: 32.0 ± 1.40%
Human TRPA1 (hTRPA1) [3]; test sample 500 μM
  TRPA1 activation rate, With antagonist: 8.24 ± 1.13%
  TRPA1 activation rate, Without antagonist: 95.9 ± 1.79%

## O=C1c2cccc(O)c2C(=O)c2c(O)cccc21 [Dantron, reference compound]
Human TRPA1 (hTRPA1) [2]; test sample 200 μM
  TRPA1 activation rates: 4.72 ± 0.762%
